Several values for one entry are separate records, joined by “and”; a condition that tells them apart may be missing. Equal entries are not always repeated. Entries after “also recorded” stand apart in the source; their conditions may differ. Structures can show the parent of a compound that is named as a salt. Where two headings read alike, the source gives them in different places. Non-standard residues stand in square brackets, D forms with d. Residues, ends and D or L forms follow the SMILES beside them.
Tests used:
[1] = rotorod test for sedation and motor coordination; assay type: in vivo; set-up: key: ✓ indicates tested (if no other comment then no significant effect)
[2] = target: delta opioid receptor (DOR) (Homo sapiens, UniProt P41143); assay: radioligand binding assay, delta opioid receptor affinity; settings: for Ki: n in parentheses, read-out: Ki (nM ± SEM) DOR
Protocol: (§1) The peptides of Table 1 shown below in Tables 3 and 4 were evaluated in radioligand binding assays for mu, kappa and delta opioid receptor affinities in vitro, and in the mouse 55° C. warm water tail withdrawal assay in vivo for antinociception and opioid antagonist activity.

[3] = target: kappa opioid receptor (KOR) (Homo sapiens, UniProt P41145); assay: radioligand binding assay, kappa opioid receptor affinity; settings: for Selectivity KOR/MOR/DOR: ratio of Ki values
Protocol: as §1

[4] = mouse 55° C. warm water tail withdrawal assay, antinociception; assay type: in vivo; settings: for ED50 (95% CI) i.c.v. / ED50 (95% CI) p.o.: antinociception; for Receptors involved: opioid receptors contributing to antinociception
Protocol: as §1

[5] = test system: opioid receptors (KOR, MOR, DOR); assay: mouse 55° C. warm water tail withdrawal assay, opioid antagonist activity; assay type: in vivo; settings: for Antagonism (opioid receptor antagonised in vivo): dose not given
Protocol: as §1

[6] = acute tolerance model; settings: in vivo
[7] = target: mu opioid receptor (MOR) (Homo sapiens, UniProt P35372); assay: radioligand binding assay, mu opioid receptor affinity
Protocol: as §1

[8] = locomotion (CLAMS); assay type: in vivo; set-up: key: ✓ indicates tested (if no other comment then no significant effect)
[9] = respiratory depression; assay type: in vivo; set-up: key: ✓ indicates tested (if no other comment then no significant effect)
[10] = other pain models (formalin, acetic acid stretching, nerve constriction; FIGS. 1-3B); settings: in vivo
Excerpt: These models are based on the formalin assay, the acetic acid stretching assay, and the nerve constriction assay. The formalin and acetic acid stretching assays are indicative of activity against inflammatory pain (i.e., nociceptive pain) and the nerve constriction assay is indicative of activity against neuropathic pain.

[11] = nerve constriction assay for neuropathic pain; assay type: in vivo, rodent; settings: 10 mg/kg p.o.; compared to 50 mg/kg i.p. gabapentin and 2801
Protocol: In the nerve constriction assay, a nerve of a subject rodent is chronically constricted or cuffed and then the animal is assessed for response to pain stimuli such a paw withdrawal. […] Gabapentin is an accepted treatment for neuropathic pain.

[12] = conditioned place response assay; settings: oral administration of the peptides
[13] = stress-induced reinstatement of cocaine seeking behavior, conditioned place preference assay; settings: in vivo
Excerpt: In interesting comparison to the other cyclic tetrapeptides, compound 3613 (DDDD) is a mu opioid receptor (MOR) agonist and delta opioid receptor (DOR) antagonist. MOR agonists/DOR antagonists are of great interest because of their decreased liability profile (decreased addiction potential and liability profile such as tolerance) compared to MOR agonists like morphine.

[14] = n in parentheses, read-out: Ki (nM ± SEM) KOR
[15] = n in parentheses, read-out: Ki (nM ± SEM) MOR

Sequence of delta opioid receptor (DOR) (P41143 whole entry): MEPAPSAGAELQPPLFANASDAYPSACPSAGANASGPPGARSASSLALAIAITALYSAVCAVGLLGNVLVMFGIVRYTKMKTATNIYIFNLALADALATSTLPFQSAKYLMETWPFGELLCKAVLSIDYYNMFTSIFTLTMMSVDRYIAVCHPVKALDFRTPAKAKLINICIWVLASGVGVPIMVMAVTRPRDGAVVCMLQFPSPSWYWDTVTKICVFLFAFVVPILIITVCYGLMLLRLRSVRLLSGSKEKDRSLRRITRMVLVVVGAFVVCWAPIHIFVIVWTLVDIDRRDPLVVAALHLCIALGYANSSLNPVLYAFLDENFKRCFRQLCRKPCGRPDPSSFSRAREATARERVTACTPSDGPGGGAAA
Sequence of kappa opioid receptor (KOR) (P41145 whole entry): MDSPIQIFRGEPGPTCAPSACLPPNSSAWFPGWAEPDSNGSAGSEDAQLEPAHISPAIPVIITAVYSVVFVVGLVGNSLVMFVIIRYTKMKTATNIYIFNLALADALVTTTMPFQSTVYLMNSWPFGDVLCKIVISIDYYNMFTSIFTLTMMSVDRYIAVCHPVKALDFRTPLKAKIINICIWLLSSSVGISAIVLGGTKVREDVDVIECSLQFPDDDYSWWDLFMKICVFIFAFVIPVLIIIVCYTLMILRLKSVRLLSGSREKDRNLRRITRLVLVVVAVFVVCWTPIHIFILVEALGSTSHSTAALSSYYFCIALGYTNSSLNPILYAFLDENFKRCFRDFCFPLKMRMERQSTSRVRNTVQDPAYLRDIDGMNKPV
Sequence of mu opioid receptor (MOR) (P35372 whole entry): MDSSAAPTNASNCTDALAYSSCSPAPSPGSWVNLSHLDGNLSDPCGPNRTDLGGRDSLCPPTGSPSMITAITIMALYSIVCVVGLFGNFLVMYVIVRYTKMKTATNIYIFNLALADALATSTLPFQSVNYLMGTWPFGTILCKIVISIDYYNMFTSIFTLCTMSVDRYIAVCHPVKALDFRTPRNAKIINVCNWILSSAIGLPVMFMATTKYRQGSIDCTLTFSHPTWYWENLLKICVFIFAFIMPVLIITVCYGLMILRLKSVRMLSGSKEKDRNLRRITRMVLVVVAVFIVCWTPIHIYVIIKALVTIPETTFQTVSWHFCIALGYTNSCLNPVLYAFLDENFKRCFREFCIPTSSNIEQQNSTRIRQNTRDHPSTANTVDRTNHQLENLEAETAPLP

| Structure (SMILES) | Ki [2] | Ki [3, 14] | ED50 (95% CI) i.c.v. ([4]; i.c.v.) | ED50 (95% CI) p.o. ([4]; p.o.) | Receptors involved [4] | Antagonism (opioid receptor antagonised in vivo) [5] | Ki [7, 15] | Respiratory depression 10 mg/kg p.o. [9] | Rotorod (10 mg/kg, p.o.) [1] | Locomotion (CLAMS, 10 mg/kg, p.o.) [8] | further results |
| --- | --- | --- | --- | --- | --- | --- | --- | --- | --- | --- | --- |
| O=C1N[C@@H](Cc2ccccc2)C(=O)N2CCC[C@@H]2C(=O)N[C@@H](Cc2ccccc2)C(=O)N[C@H]1Cc1c[nH]c2ccccc12 [JVA 2801, cyclo[Phe-D-Pro-Phe-Trp], reference compound] (cyclo(FWF[dP])) | 1720 ± 350 nM | 35.4 nM and 16.9 nM | 1.74 nmol | 3.49 mg/kg | KOR, MOR | KOR |  |  |  |  | Rotorod ([1]; 10 and 60 mg/kg): ✓ (10 and 60; Selectivity KOR/MOR/DOR [3]: 1/18/49 and 1/12/102; Antagonism (opioid receptor antagonised in vivo) ([5]; listed as CJ-15,208): mixed opioid agonist/kappa opioid receptor (KOR) antagonist activity; also recorded: weak antagonist activities at kappa opioid receptors (KOR); Acute Tolerance ED50 shift [6]: 1.73 fold |
| O=C1N[C@H](Cc2c[nH]c3ccccc23)C(=O)N[C@@H](Cc2ccccc2)C(=O)N2CCC[C@@H]2C(=O)N[C@H]1Cc1ccccc1 [JVA 2802, cyclo[Phe-D-Pro-Phe-D-Trp], reference compound] (cyclo(F[dP]F[dW])) | 4190 ± 860 nM |  |  |  | KOR | KOR | 259 ± 29 nM |  |  |  | affinity for KOR [3]: retains KOR affinity comparable to the parent CJ-15,208; Selectivity KOR/MOR/DOR [3]: 1/37/599; antinociception i.c.v. at 30 nmol ([4]; i.c.v., 30 nmol): ~40% @; antinociception p.o. at 60 mg/kg ([4]; p.o., 60 mg/kg): ~25% @; Locomotion (CLAMS) ([8]; 60 mg/kg): ✓ |
| O=C1N[C@H](Cc2ccccc2)C(=O)N2CCC[C@@H]2C(=O)N[C@@H](Cc2ccccc2)C(=O)N[C@H]1Cc1c[nH]c2ccccc12 [JVA 3605, cyclo[D-Phe-D- Pro-Phe-Trp]] (cyclo([dF][dP]FW)) | > 10000 nM | 5120 ± 690 nM | 0.75 nmol | 7.62 mg/kg | KOR, MOR, and DOR | exhibits KOR antagonist activity; also recorded: exhibit DOR antagonist activity | > 10000 nM | evidence of respiratory depression; also recorded: Sig. resp | effects similar to the KOR selective agonist U50,488, suggesting sedation; also recorded: ✓ (sig | ✓ | analgesic activity in other pain models [10]: significant analgesic properties; also recorded: show activity against pain; relief of neuropathic pain [11]: significant relief of neuropathic pain; conditioned place preference (drug seeking behavior) or conditioned place aversion [12]: no evidence of inducing drug seeking behavior; also recorded: do not show evidence of conditioned place preference (drug seeking behavior) or conditioned place aversion; Antagonism (dose, nmol) ([5]; 30 nmol): KOR (30),; Antagonism (dose, nmol) ([5]; 100 nmol): DOR (100) |
| O=C1N[C@@H](Cc2ccccc2)C(=O)N2CCC[C@@H]2C(=O)N[C@H](Cc2ccccc2)C(=O)N[C@H]1Cc1c[nH]c2ccccc12 [JVA 3606, cyclo[Phe-D-Pro-D-Phe-Trp]] (cyclo(F[dP][dF]W)) | > 10000 nM | 362 ± 51 nM | Partial agonist | > 30 mg/kg | KOR, MOR |  | 3920 ± 200 nM | ✓ | ✓ | Sig. hypo- | affinity for DOR [2]: negligible affinity; Ki ([3]; read-out: Ki KOR): < 1000 nM; maximum antinociception i.c.v. ([4]; i.c.v., max): (~60% max); antinociception response p.o. at 30 mg/kg ([4]; p.o.): ~45%; Ki ([7]; read-out: Ki MOR): > 1000 nM; Antagonism (dose, nmol) ([5]; 100 nmol): None (100); Acute Tolerance ED50 shift [6]: Substantial |
| O=C1N[C@H](Cc2ccccc2)C(=O)N[C@H](Cc2c[nH]c3ccccc23)C(=O)N[C@@H](Cc2ccccc2)C(=O)N2CCC[C@H]12 [JVA 3608, cyclo[Phe-D-Pro-D-Phe-D-Trp]] (cyclo(F[dP][dF][dW])) | > 10000 nM | 353 ± 19 nM | 0.56 nmol | 4.72 mg/kg | KOR, MOR, and DOR | exhibit DOR antagonist activity | 5800 ± 1450 nM | evidence of respiratory depression; also recorded: Resp | ✓ | Sig. hypo- | analgesic activity in other pain models [10]: significant analgesic properties; analgesic activity in other pain models ([10]; listed as 3708): show activity against pain; relief of neuropathic pain [11]: significant relief of neuropathic pain; affinity for DOR [2]: negligible affinity; Ki ([3]; read-out: Ki KOR): < 1000 nM; Ki ([7]; read-out: Ki MOR): > 1000 nM; Antagonism (dose, nmol) ([5]; 100 nmol): DOR (100); Acute Tolerance ED50 shift [6]: 9.87 fold |
| O=C1N[C@H](Cc2c[nH]c3ccccc23)C(=O)N[C@H](Cc2ccccc2)C(=O)N2CCC[C@@H]2C(=O)N[C@H]1Cc1ccccc1 [JVA 3609, cyclo[D-Phe-D- Pro-Phe-D-Trp]] (cyclo(F[dW][dF][dP])) | > 10000 nM | > 10000 nM | 2.39 nmol | ≥10 mg/kg | mu opioid receptors (MOR) are not involved; also recorded: DOR, KOR |  | > 10000 nM | evidence of respiratory depression; also recorded: Resp | ✓ (sig | Sig. hypo- | antinociception response p.o. at 30 mg/kg ([4]; p.o.): (~60% at; Antagonism (dose, nmol) ([5]; 30 nmol): None (30) |
| O=C1N[C@@H](Cc2ccccc2)C(=O)N2CCC[C@H]2C(=O)N[C@@H](Cc2ccccc2)C(=O)N[C@H]1Cc1c[nH]c2ccccc12 [JVA 3612, cyclo[Phe-Pro- Phe-Trp]] (cyclo(FPFW)) |  |  | 3.52 (2.01-6.42) nmol | 4.28 (3.56-5.27) mg/kg | KOR, MOR and DOR |  |  |  |  |  |  |
| O=C1N[C@H](Cc2ccccc2)C(=O)N[C@H](Cc2c[nH]c3ccccc23)C(=O)N[C@H](Cc2ccccc2)C(=O)N2CCC[C@H]12 [JVA 3613, cyclo[D-Phe-D-Pro-D-Phe-D-Trp]] (cyclo([dF][dP][dF][dW])) | > 10000 nM | 2010 ± 270 nM | 0.51 nmol | 2.47 mg/kg | kappa opioid receptors (KOR) are not involved; also recorded: DOR, MOR | exhibit DOR antagonist activity | > 10000 nM | ✓ | ✓ | ✓ | Antagonism (dose, nmol) ([5]; 30 nmol): DOR (30); prevention of stress-induced reinstatement of cocaine seeking behavior [13]: effective in preventing stress-induced reinstatement of cocaine seeking behavior |
| O=C1N[C@H](Cc2ccccc2)C(=O)N2CCC[C@H]2C(=O)N[C@H](Cc2ccccc2)C(=O)N[C@H]1Cc1c[nH]c2ccccc12 [JVA 3638, cyclo[D-Phe- Pro-D-Phe-Trp]] (cyclo(P[dF]W[dF])) |  |  | 8.93 (1.96-19.5) nmol |  |  |  |  |  |  |  |  |
| O=C1N[C@H](Cc2c[nH]c3ccccc23)C(=O)N[C@@H](Cc2ccccc2)C(=O)N2CCC[C@H]2C(=O)N[C@H]1Cc1ccccc1 [JVA 3639, cyclo[Phe-Pro- Phe-D-Trp]] (cyclo(FPF[dW])) |  |  | 49.7 (34.8-69.8) nmol |  |  |  |  |  |  |  |  |
| CN1CC[C@]23c4c5ccc(O)c4O[C@H]2[C@@H](O)C=C[C@H]3[C@H]1C5 [Morphine sulfate, morphine, reference compound] |  |  |  |  |  |  |  |  |  |  | conditioned place preference (drug seeking behavior) or conditioned place aversion [12]: significant conditioned place preference |

From patent US10259843B2, “Cyclic tetrapeptide stereoisomers” (University of Kansas, priority 2014, dated 2019)
